Source: ChEMBL document CHEMBL1146647, “First total synthesis of structurally unique flavonoids and their strong anti-inflammatory effect” (2004)

Tested on: Mus musculus
Experiment: Percentage increase of mice ear thickness at 10 ug/kg
Type: functional

`O=c1cc(-c2ccccc2)oc2cc3c(c(O)c12)[C@@H]1O[C@H](CO)[C@@H](O)[C@H](O)[C@@H]1O3` was tested, and the Increase was 59%.
Work on `O=c1cc(-c2ccc(O)cc2)oc2cc3c(c(O)c12)[C@@H]1O[C@H](CO)[C@@H](O)[C@H](O)[C@@H]1O3` yielded an Increase of 30%.
